From patent publication US11517577B2, “Fluorinated bile acid derivatives” (NZP UK LIMITED, priority 2018, dated 2022)

Target: T1, Human Farnesoid X Receptor (NR1H4, FXR) (Homo sapiens, UniProt Q96RI1)
T1 sequence (Q96RI1 1-486): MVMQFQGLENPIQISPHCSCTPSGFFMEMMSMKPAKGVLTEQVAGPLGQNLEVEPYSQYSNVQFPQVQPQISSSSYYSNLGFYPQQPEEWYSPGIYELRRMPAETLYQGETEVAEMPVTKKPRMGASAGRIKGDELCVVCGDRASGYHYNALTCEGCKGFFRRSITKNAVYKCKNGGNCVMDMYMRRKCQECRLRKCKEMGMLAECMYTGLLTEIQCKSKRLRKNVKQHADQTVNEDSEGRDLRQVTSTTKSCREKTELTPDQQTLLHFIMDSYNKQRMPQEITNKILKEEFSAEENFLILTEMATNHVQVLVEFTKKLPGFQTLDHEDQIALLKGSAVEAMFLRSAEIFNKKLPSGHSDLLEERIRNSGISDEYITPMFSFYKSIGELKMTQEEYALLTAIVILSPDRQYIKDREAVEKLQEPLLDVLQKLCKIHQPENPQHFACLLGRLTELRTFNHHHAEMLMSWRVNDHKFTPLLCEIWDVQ
Assay: FXR reporter assay, EC50 and efficacy (Indigo Biosciences luciferase reporter cells)
Assay type: cell-based
Conditions: for Efficacy: maximum point on the dose response curve, GW4064 designated as 100%
Procedure: The compounds of the invention were assayed for agonist activity at the FXR receptor.
Dose-response assays were performed as described in the technical manual of the Human Farnesoid X Receptor (NR1H4, FXR) Reporter Assay System (Indigo Biosciences Human Farnesoid X Receptor (NR1H4, FXR) Reporter Assay System, Technical Manual (version 7.1b), at the World Wide Web (www)indiqobiosciences.com).
FXR reporter cells consisting of an FXR-responsive promoter gene functionally linked to the luciferase gene were defrosted and seeded into a 96-well plate and these cells were immediately dosed with the test compounds at different concentrations (10-0.05 μM) according to the manufacturer's protocol. […] Following this, the induction of luciferase activity, which is the measure of the agonist activity, was quantified by using luminometer (TECAN) according to the manufacturer's protocol.

SMILES: CC[C@H]1[C@@H](O)C2C3CCC([C@H](C)CCNC(=O)NS(=O)(=O)c4ccccc4)[C@@]3(C)CCC2[C@@]2(C)CC[C@@H](O)C[C@@H]12 (stereo partly drawn) [Comparative compound A, N,N′-(3α,7α-Dihydroxyl-6α-ethyl-24-nor-5β-cholan-23-yl)-benzene sulfonyl urea, reference compound]
- EC50: 32 nM
- Efficacy: 147%

SMILES: CC[C@@H]1[C@@H]2[C@@H](F)[C@H](O)CC[C@]2(C)C2CC[C@@]3(C)C(CCC3[C@H](C)CCNC(=O)NS(=O)(=O)c3ccc(F)cc3)C2[C@@H]1O (stereo partly drawn) [Compound 6, N,N′-(3α,7α-Dihydroxyl-4β-fluoro-6α-ethyl-24-nor-5β-cholan-23-yl)-p-fluorobenzene sulfonyl urea]
- EC50: 32 nM
- Efficacy: 187%

SMILES: CC[C@@H]1[C@@H]2[C@@H](F)[C@H](O)CC[C@]2(C)C2CC[C@@]3(C)C(CCC3[C@H](C)CCNC(=O)NS(=O)(=O)c3ccccc3C(F)(F)F)C2[C@@H]1O (stereo partly drawn) [Compound 11, N,N′-(3α,7α-Dihydroxyl-4β-fluoro-6α-ethyl-24-nor-5β-cholan-23-yl)-o-(trifluoromethyl)benzene sulfonyl urea]
- EC50: 123 nM
- Efficacy: 104%

SMILES: CC[C@@H]1[C@@H]2[C@@H](F)[C@H](O)CC[C@]2(C)C2CC[C@@]3(C)C(CCC3[C@H](C)CCNC(=O)NS(=O)(=O)c3ccc(C(C)(C)C)cc3)C2[C@@H]1O (stereo partly drawn) [Compound 3, N,N′-(3α,7α-Dihydroxyl-4β-fluoro-6α-ethyl-24-nor-5β-cholan-23-yl)-4-(tert-butyl) benzene sulfonyl urea]
- EC50: 19 nM
- Efficacy: 151%

SMILES: CC[C@H]1[C@@H](O)[C@@H]2[C@H](CC[C@]3(C)[C@@H]([C@H](C)CCC(=O)NS(=O)(=O)c4cccc(C(F)(F)F)c4)CC[C@@H]23)[C@@]2(C)CC[C@@H](O)[C@H](F)[C@@H]12 [Compound 19, N-(3α,7α-Dihydroxyl-4β-fluoro-6α-ethyl-5β-cholan-24-oyl)-3-trifluoromethylphenyl sulfonamide]
- EC50: 50 nM
- Efficacy: 136%

SMILES: CC[C@H]1[C@@H](O)[C@@H]2[C@H](CC[C@]3(C)[C@@H]([C@H](C)CCC(=O)NS(=O)(=O)C4CC4)CC[C@@H]23)[C@@]2(C)CC[C@@H](O)[C@H](F)[C@@H]12 [Comparative compound B, N-(3α,7α-Dihydroxyl-4β-fluoro-6α-ethyl-5β-cholan-24-oyl)-cyclopropyl sulfonamide, reference compound]
- EC50: 158 nM
- Efficacy: 132%

SMILES: CC[C@@H]1[C@@H]2[C@@H](F)[C@H](O)CC[C@]2(C)C2CC[C@@]3(C)C(CCC3[C@H](C)CCNC(=O)NS(=O)(=O)c3ccccc3C)C2[C@@H]1O (stereo partly drawn) [Compound 5, N,N′-(3α,7α-Dihydroxyl-4β-fluoro-6α-ethyl-24-nor-5β-cholan-23-yl)-o-toluene sulfonyl urea]
- EC50: 28 nM
- Efficacy: 166%

SMILES: CC[C@@H]1[C@@H]2[C@@H](F)[C@H](O)CC[C@]2(C)C2CC[C@@]3(C)C(CCC3[C@H](C)CCNC(=O)NS(=O)(=O)c3cccc(C)c3)C2[C@@H]1O (stereo partly drawn) [Compound 4, N,N′-(3α,7α-Dihydroxyl-4β-fluoro-6α-ethyl-24-nor-5β-cholan-23-yl)-m-toluene sulfonyl urea]
- EC50: 23 nM
- Efficacy: 148%

SMILES: CC[C@H]1[C@@H](O)[C@@H]2[C@H](CC[C@]3(C)[C@@H]([C@H](C)CCC(=O)NS(=O)(=O)c4ccc(F)cc4)CC[C@@H]23)[C@@]2(C)CC[C@@H](O)[C@H](F)[C@@H]12 [Compound 15, N-(3α,7α-Dihydroxyl-4β-fluoro-6α-ethyl-5β-cholan-24-oyl)-p-fluorobenzene sulfonamide]
- EC50: 38 nM
- Efficacy: 98%

SMILES: CC[C@H]1[C@@H](O)[C@@H]2[C@H](CC[C@]3(C)[C@@H]([C@H](C)CCC(=O)NS(=O)(=O)c4ccccc4F)CC[C@@H]23)[C@@]2(C)CC[C@@H](O)[C@H](F)[C@@H]12 [Compound 17, N-(3α,7α-Dihydroxyl-4β-fluoro-6α-ethyl-5β-cholan-24-oyl)-o-fluorophenyl sulfonamide]
- EC50: 34 nM
- Efficacy: 121%

SMILES: CC[C@@H]1[C@@H]2[C@@H](F)[C@H](O)CC[C@]2(C)C2CC[C@@]3(C)C(CCC3[C@H](C)CCNC(=O)NS(=O)(=O)c3ccc(C)cc3)C2[C@@H]1O (stereo partly drawn) [Compound 1, N,N′-(3α,7α-Dihydroxyl-4β-fluoro-6α-ethyl-24-nor-5β-cholan-23-yl)-p-toluene sulfonyl urea]
- EC50: 18 nM
- Efficacy: 193%

SMILES: CC[C@@H]1[C@@H]2[C@@H](F)[C@H](O)CC[C@]2(C)C2CC[C@@]3(C)C(CCC3[C@H](C)CCNC(=O)NS(=O)(=O)c3ccc(OC)cc3)C2[C@@H]1O (stereo partly drawn) [Compound 13, N,N′-(3α,7α-Dihydroxyl-4β-fluoro-6α-ethyl-24-nor-5β-cholan-23-yl)-p-methoxybenzene sulfonyl urea]
- EC50: 48 nM
- Efficacy: 250%

SMILES: CC[C@H]1[C@@H](O)[C@@H]2[C@H](CC[C@]3(C)[C@@H]([C@H](C)CCC(=O)NS(=O)(=O)c4cccc(F)c4)CC[C@@H]23)[C@@]2(C)CC[C@@H](O)[C@H](F)[C@@H]12 [Compound 16, N-(3α,7α-Dihydroxyl-4β-fluoro-6α-ethyl-5β-cholan-24-oyl)-m-fluorophenyl sulfonamide]
- EC50: 46 nM
- Efficacy: 143%

SMILES: CC[C@H]1[C@@H](O)[C@@H]2[C@H](CC[C@]3(C)[C@@H]([C@H](C)CCC(=O)NS(C)(=O)=O)CC[C@@H]23)[C@@]2(C)CC[C@@H](O)[C@H](F)[C@@H]12 [Comparative compound C, N-(3α,7α-Dihydroxyl-4β-fluoro-6α-ethyl-5β-cholan-24-oyl)-methyl sulfonamide, reference compound]
- EC50: 192 nM
- Efficacy: 130%

SMILES: CC[C@@H]1[C@@H]2[C@@H](F)[C@H](O)CC[C@]2(C)C2CC[C@@]3(C)C(CCC3[C@H](C)CCNC(=O)NS(=O)(=O)c3ccccc3F)C2[C@@H]1O (stereo partly drawn) [Compound 8, N,N′-(3α,7α-Dihydroxyl-4β-fluoro-6α-ethyl-24-nor-5β-cholan-23-yl)-o-fluorobenzene sulfonyl urea]
- EC50: 43 nM
- Efficacy: 159%

SMILES: CC[C@@H]1[C@@H]2[C@@H](F)[C@H](O)CC[C@]2(C)C2CC[C@@]3(C)C(CCC3[C@H](C)CCNC(=O)NS(=O)(=O)c3ccc(OC(F)(F)F)cc3)C2[C@@H]1O (stereo partly drawn) [Compound 12, N,N′-(3α,7α-Dihydroxyl-4β-fluoro-6α-ethyl-24-nor-5β-cholan-23-yl)-4-(trifluoromethoxy)benzene sulfonyl urea]
- EC50: 27 nM
- Efficacy: 176%

SMILES: CC[C@@H]1[C@@H]2[C@@H](F)[C@H](O)CC[C@]2(C)C2CC[C@@]3(C)C(CCC3[C@H](C)CCNC(=O)NS(=O)(=O)c3ccc(C(F)(F)F)cc3)C2[C@@H]1O (stereo partly drawn) [Compound 9, N,N′-(3α,7α-Dihydroxyl-4β-fluoro-6α-ethyl-24-nor-5β-cholan-23-yl)-p-(trifluoromethyl)benzene sulfonyl urea]
- EC50: 50 nM
- Efficacy: 158%

SMILES: CC[C@@H]1[C@@H]2[C@@H](F)[C@H](O)CC[C@]2(C)C2CC[C@@]3(C)C(CCC3[C@H](C)CCNC(=O)NS(=O)(=O)c3cccc(F)c3)C2[C@@H]1O (stereo partly drawn) [Compound 7, N,N′-(3α,7α-Dihydroxyl-4β-fluoro-6α-ethyl-24-nor-5β-cholan-23-yl)-m-fluorobenzene sulfonyl urea]
- EC50: 38 nM
- Efficacy: 131%
